Measurements taken from patent publication US6608082B1, “Treatment of erectile dysfunction using isoquinoline compound melanocortin receptor ligands” (Lion Bioscience AG, priority 1998, dated 2003).
pEC50, pIC50: −log10 of the molar value. Read-outs that look alike come from different tables or passages of the source. Blank lines part the entries; values can stand above or below the compound they belong to.

Assays:
MCR-5 = target: T1, MCR-5 (Homo sapiens, UniProt P33032); assay: cAMP assay for melanocortin receptors, HEK 293 cells expressing MCR-5; format: cell-based; conditions: read-out: MC-5 EC50 (cAMP)
T1 construct: expressed in transfected cells; host or cells: HEK 293
T1 sequence (P33032 whole entry): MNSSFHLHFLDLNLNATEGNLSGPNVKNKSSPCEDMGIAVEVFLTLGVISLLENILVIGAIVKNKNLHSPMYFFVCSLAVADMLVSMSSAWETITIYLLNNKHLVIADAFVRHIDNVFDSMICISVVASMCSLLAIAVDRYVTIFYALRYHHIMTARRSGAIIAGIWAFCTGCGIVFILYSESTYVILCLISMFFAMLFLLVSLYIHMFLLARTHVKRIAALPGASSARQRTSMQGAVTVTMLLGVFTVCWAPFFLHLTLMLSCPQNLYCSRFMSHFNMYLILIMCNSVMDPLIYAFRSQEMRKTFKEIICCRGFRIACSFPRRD
Description: (§1) HEK 293 cells expressing MCR-1, MCR-3, MCR-4 and MCR-5 were used (see Example II). Cells were plated at 20,000 cells per well in a 96-well plate coated with collagen. The next day, cells were pretreated with 75 μl of 0.4 mM 3-isobutyl-1-methylxanthine (IBMX) in low serum medium containing DMEM, 25 mM HEPES, non-essential amino acids, vitamins, 100 units/ml penicillin, 100 μg/ml streptomycin and 0.1% COSMIC CALF SERUM. IBMX is an inhibitor of cAMP phosphodiesterase. The pretreatment was carried out for 10 min at 37° C.
(§2) Following pretreatment, 25 μl of diluted isoquinoline compound was added to the wells, and cells were incubated for 15 min at 37° C. Cells were lysed by adding 25 μl saponin lysis buffer and incubating 2 to 5 min. Plates were covered and stored at −20° C.
(§3) cAMP concentration was determined by ELISA. Briefly, 96 well ELISA plates were coated with goat anti-cAMP antibody in PBS for 12 to 72 hr at 4° C. 50 μl of sample was mixed with 50 μl of cAMP ELISA buffer containing 1% bovine serum albumin, 10% heat-inactivated donor horse serum, 1% normal mouse serum and 0.05% TWEEN-20 in PBS, and the diluted sample was added to the coated ELISA plate. Standards of known concentrations of cAMP were added to separate wells. 25 μl of 16 ng/ml cAMP-conjugated horse radish peroxidase (HRP) (cAMP-HRP) was added to each well, and the plates were […] at room temperature. Plates were washed and the binding of cAMP-HRP was detected with 3,3′,5,5′-tetramethylbenzidine (TMB) and hydrogen peroxide using standard immunoassay procedures.
(§4) Various isoquinoline compounds were tested for their ability to activate MC receptor by measuring cAMP as described in Example III.

MCR-4 [1] = target: T2, MCR-4 (Homo sapiens, UniProt P32245); assay: cAMP assay for melanocortin receptors, HEK 293 cells expressing MCR-4; format: cell-based; conditions: for pEC50: read-out: MC-4 EC50 (cAMP); for MC-4 Max (pmole) cAMP produced: maximum amount of cAMP
T2 construct: expressed in transfected cells; host or cells: HEK 293
T2 sequence (P32245 whole entry): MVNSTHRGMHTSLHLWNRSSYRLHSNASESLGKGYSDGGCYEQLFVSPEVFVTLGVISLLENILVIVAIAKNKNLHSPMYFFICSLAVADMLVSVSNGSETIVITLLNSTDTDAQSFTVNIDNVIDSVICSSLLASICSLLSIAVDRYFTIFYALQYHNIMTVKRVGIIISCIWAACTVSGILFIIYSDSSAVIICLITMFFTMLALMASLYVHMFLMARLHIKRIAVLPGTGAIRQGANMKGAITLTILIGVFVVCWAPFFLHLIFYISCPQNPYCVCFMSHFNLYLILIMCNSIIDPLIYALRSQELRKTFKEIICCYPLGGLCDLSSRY
Description: as §1, §2, §3, §4

MCR-4 [2] = target: T2, MCR-4; assay: Melanocortin receptor binding assay, competition with 125I-HP 467, HEK 293 cells expressing hMCR-4; conditions: read-out: MC-4 IC50
Summary of the method: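 Intact-cell competition binding, 2.5 hr at 37 °C, in PBS/10% calf serum/1 mM CaCl2; hMCR-4 cells at 4×10^3 per tube, hMCR-1 cells at 2×10^4 per tube. Filtration on BSA/CaCl2-soaked GF/B, cold 50 mM Tris pH 7.4 washes, scintillation count.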

[3] = tested on: arachidonic acid induced dermal inflammation; assay: Arachidonic acid induced dermal inflammation (ear thickness); format: in vivo, Female BALB/c mice; conditions: for inflammation in response to arachadonic acid administration: mouse, in vivo; for reduction in the level of arachidonic acid-induced dermal inflammation: intraperitoneally, TRG 2409-2 or TRG 2409-14 100 or 300 μg/mouse, FIG. 5
Description: Female BALB/c mice (17-22 g) were used and administered the test isoquinoline compounds or positive control compounds 30 to 60 min prior to topical application of arachidonic acid. Indomethacin and HP 228 were used as positive controls. Compounds were administered orally (p.o.) or intraperitoneally (i.p.). Initial ear thickness (left and right) was measured using spring loaded micro-calipers. Arachidonic acid was applied to mice anesthetized with a cocktail of ketamine/xylazine (7.0 mg/ml and 0.6 mg/ml, respectively) administered i.p. (300 μl/mouse). Utilizing a micro-pipette, 20 μl of arachidonic acid solution (100 mg/ml ethanol or acetone) was applied to the right ear (10 μl to inner and 10 μl to outer surfaces of […] for a total of 2 mg arachidonic acid per right ear), and 20 μl of vehicle (ethanol or acetone) was applied to the left ear. Mice were returned to their cages to recover. Mice were again anesthetized 50 min after arachidonic acid application and their ears measured.
Dermal inflammation was determined by subtracting the difference of the vehicle treated left ear (L60−L0) from the difference of the arachidonic acid treated right ear (R60−R0). Ear thickness measurements were averaged for each group, and the responses in the vehicle treated control group (Cr; saline or PBS) were subtracted from the response noted in the isoquinoline compound treated group (Tr) to give the relative inflammatory response for each treatment group compared to the control group. The percent inhibition is defined by the equation: % inhibition=(Cr−Tr)/(Cr)×100.

[4] = Body weight and food consumption after i.p. administration; format: in vivo, Sprague-Dawley rats; conditions: for reducing body weight and food consumption: rat, in vivo; for food consumption / weight gain / body weight relative to control: rats, 5 mg/kg i.p.; for food consumption / weight gain: 18 hours after injection, FIG. 6; for body weight relative to control: at 9 hours as well as 18 hours, FIG. 7
Text: Adult male Sprague-Dawley rats (175-225 g) were used to assess the effect of isoquinoline compounds on food uptake and body weight. Baseline body weight and food consumption measurements were taken for 3 days prior to start of the study (Day 0). On Day −1, the food was taken away from the animals at 5:00 PM. The next morning (Day 0), body weight measurements were taken, and the animals were divided into treatment groups with 6 animals in each group. The treatment groups were saline control, HP 228 positive control and test isoquinoline compounds. Saline was administered i.p. at 1 ml/kg. HP 228 and test isoquinoline compounds were administered i.p. at 5 mg/kg. The injections were initiated at 2:00 PM on Day 0.
Body weight and food consumption measurements were taken at 9 hr (Day 0; 11:00 PM) and at 18 hr (Day 1, 8:00 AM) after injection. At the end of the study, all evaluated parameters (9 and 18 hour body weight and food consumption) were analyzed by standard statistical methods. Significance (P<0.05) was determined by one-way ANOVA, ANOVA for repeated measures, or Student's t-test.
The level of reduction was similar to that seen with HP 228.

[5] = 100 μg/mouse administered intraperitoneally, FIG. 4
[6] = TRG 2408 and TRG 2409 libraries, inhibition of 125I-HP 467 binding
[7] = competition with 125I-HP 467, HEK 293 cells expressing MCR-4

Structure (SMILES): CNC(CN)CN1Cc2ccccc2C(CNC2CCCCC2)C1c1ccc(O)cc1 (stereo not shown) [TRG 2405-156]
pEC50 (MCR-5): < 4.30
pEC50 (MCR-4 [1]): < 4.30
pIC50 (MCR-4 [2]; TRG 2405 section, inhibition of binding of 125I-HP 467, HEK 293 cells expressing MCR-4): 4.69

Structure (SMILES): CNC(CN)CCCCN1Cc2ccccc2C(CNC2CCCCC2)C1c1ccc(Cl)cc1Cl (stereo not shown) [TRG 2405-190]
inhibition of arachidonic acid induced dermal inflammation [3, 5]: inhibition of arachidonic acid induced dermal inflammation
inflammation in response to arachadonic acid administration [3]: reduced inflammation
reducing body weight and food consumption [4]: particularly effective at reducing body weight and food consumption
food consumption [4]: significant decrease
weight gain [4]: significant decrease
MC-4 Max (pmole) cAMP produced (MCR-4 [1]): 100.48 pmol
pEC50 (MCR-4 [1]): 4.33

Structure (SMILES): CNC(CN)CCCCN1Cc2ccccc2C(CNC2CCCCC2)C1c1ccc(N(C)C)cc1 (stereo not shown) [TRG 2405-235]
pEC50 (MCR-4 [1]): < 4.30

Structure (SMILES): CNC(CN)CCCCN1Cc2ccccc2C(CNC2CCCCC2)C1c1ccc(C(F)(F)F)cc1 (stereo not shown) [TRG 2405-238]
pEC50 (MCR-5): < 4.30
pEC50 (MCR-4 [1]): < 4.30

Structure (SMILES): CCNc1ccc(C2C(CNC3CCCCC3)c3ccccc3CN2CCCCC(CN)NC)cc1 (stereo not shown) [TRG 2405-239]
pEC50 (MCR-5): < 4.30
pEC50 (MCR-4 [1]): < 4.30

Structure (SMILES): CNC(CN)CCCCN1Cc2ccccc2C(CNC2CCCCC2)C1c1ccc(-c2ccccc2)cc1 (stereo not shown) [TRG 2405-241]
inhibition of arachidonic acid induced dermal inflammation [3, 5]: inhibition of arachidonic acid induced dermal inflammation
inhibition of arachidonic acid induced dermal inflammation ([3]; administered intraperitoneally, TRG 2405-241 300 μg/mouse, HP 228 100 μg/mouse, FIG. 3): comparable to that seen with HP 228
inhibition of arachidonic acid induced dermal inflammation ([3]; administered orally, TRG 2405-241 600 μg/mouse, indomethacin 1 mg/mouse, FIG. 2): comparable to that seen with indomethacin
inflammation in response to arachadonic acid administration [3]: reduced inflammation
pEC50 (MCR-5): < 4.30
reducing body weight and food consumption [4]: particularly effective at reducing body weight and food consumption
food consumption [4]: significant decrease
weight gain [4]: significant decrease
MC-4 Max (pmole) cAMP produced (MCR-4 [1]): 32.32 pmol
pEC50 (MCR-4 [1]): 4.55

Structure (SMILES): CNC(CN)CCCCN1Cc2ccccc2C(CNC2CCCCC2)C1c1ccc(O)cc1 (stereo not shown) [TRG 2405-246]
pEC50 (MCR-5): < 4.30
pEC50 (MCR-4 [1]): < 4.30

Structure (SMILES): CNC(CN)CCCCN1Cc2ccccc2C(CNC2CCCCC2)C1c1ccc(Oc2ccccc2)cc1 (stereo not shown) [TRG 2405-252]
inhibition of arachidonic acid induced dermal inflammation [3, 5]: inhibition of arachidonic acid induced dermal inflammation
inflammation in response to arachadonic acid administration [3]: reduced inflammation
pEC50 (MCR-5): < 4.30
reducing body weight and food consumption [4]: particularly effective at reducing body weight and food consumption
body weight relative to control [4]: significant differences
MC-4 Max (pmole) cAMP produced (MCR-4 [1]): 39.24 pmol
pEC50 (MCR-4 [1]): 4.73

Structure (SMILES): CNC(CN)CCCCN1Cc2ccccc2C(CNC2CCCCC2)C1c1ccc2cccc(O)c2n1 (stereo not shown) [TRG 2405-262]
pEC50 (MCR-5): < 4.30
pEC50 (MCR-4 [1]): < 4.30

Structure (SMILES): CCCCNc1ccc(C2C(CNC3CCCCC3)c3ccccc3CN2CCCCC(CN)NC)cc1 (stereo not shown) [TRG 2409-14]
reduction in the level of arachidonic acid-induced dermal inflammation ([3]; HP 228 100 μg/mouse): decreased dermal inflammation to a lesser extent than TRG 2409-2
inflammation in response to arachadonic acid administration [3]: reduced inflammation
pIC50 (MCR-4 [2]; [7]): 4.82

Second part, led by results:

pEC50 (MCR-5): < 4.30
pEC50 (MCR-4 [1]): < 4.30
Structure (SMILES): CNC(CN)CCCCN1Cc2ccccc2C(CNC2CCCCC2)C1c1ccc(Br)cc1 (stereo not shown) [TRG 2405-242]

pEC50 (MCR-5): < 4.30
MC-4 Max (pmole) cAMP produced (MCR-4 [1]): 69.11 pmol
pEC50 (MCR-4 [1]): 4.78
Structure (SMILES): CCCOc1ccc(C2C(CNC3CCCCC3)c3ccccc3CN2CCCCC(CN)NC)cc1 (stereo not shown) [TRG 2405-253]
inhibition of arachidonic acid induced dermal inflammation [3, 5]: inhibition of arachidonic acid induced dermal inflammation
inflammation in response to arachadonic acid administration [3]: reduced inflammation
reducing body weight and food consumption [4]: particularly effective at reducing body weight and food consumption
body weight relative to control [4]: significant differences

pIC50 (MCR-4 [2]; TRG 2406 and TRG 2407 libraries, inhibition of binding of 125I-HP 467): 6.96
Structure (SMILES): CNC(CN)CCCCN1Cc2ccccc2C(CN)C1c1ccc(Cl)cc1Cl (stereo not shown) [TRG 2407-39]

pIC50 (MCR-4 [2]; [6]): 4.34
Structure (SMILES): CCNc1ccc(C2C(CNC3CCCCC3)c3ccccc3CN2CCCCC(CN)NC)cc1 (stereo not shown) [TRG 2408-30]

pIC50 (MCR-4 [2]; [6]): 5.22
Structure (SMILES): CCNc1ccc(C2C(CNCc3ccccc3O)c3ccccc3CN2CCCC(CN)NCCc2ccccc2)cc1 (stereo not shown) [TRG 2408-57]

pIC50 (MCR-4 [2]; [6]): 5.58
Structure (SMILES): CCNc1ccc(C2C(CNC3CCCCC3)c3ccccc3CN2CCCC(CN)NCCc2ccccc2)cc1 (stereo not shown) [TRG 2408-62]

pIC50 (MCR-4 [2]; [7]): 4.97
Structure (SMILES): CCCCNc1ccc(C2C(CNCc3ccccc3O)c3ccccc3CN2CCCCC(CN)NC)cc1 (stereo not shown) [TRG 2409-2]
reduction in the level of arachidonic acid-induced dermal inflammation ([3]; HP 228 100 μg/mouse): dose dependent reduction in the level of arachidonic acid-induced dermal inflammation
inflammation in response to arachadonic acid administration [3]: reduced inflammation
